Measured values: the supplement of paper PMC10307832

Tests used:
Assay in all cases: relative viability (nuclei count vs DMSO), 5 days (fraction); higher = more cells survive
[1] = compound: O=C(O)c1ccc2c(c1)nc(Nc1cccc(Cl)c1)c1ccncc12 [Silmitasertib] + CC(=O)c1c(C)c2cnc(Nc3ccc(N4CCNCC4)cn3)nc2n(C2CCCC2)c1=O [Palbociclib] (partner 0.5 µM)
Summary of the method: (§1)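 Medians of duplicate plates are given as relative viability. That measure is the nuclei count in treated wells divided by the count in vehicle wells. Counts were taken on 4× images of lung cancer cell lines in 1536-well plates, 5 days after pin-tool dosing the day after seeding with one drug alone or a fixed anchor-drug dose plus five library-drug doses (not always all listed) in √10 steps.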

[2] = compound: O=C(O)c1ccc2c(c1)nc(Nc1cccc(Cl)c1)c1ccncc12 [Silmitasertib] + CCNC(=O)c1noc(-c2cc(C(C)C)c(O)cc2O)c1-c1ccc(CN2CCOCC2)cc1 [Luminespib] (partner 0.01 µM)
Summary of the method: as §1

[3] = compound: O=C(O)c1ccc2c(c1)nc(Nc1cccc(Cl)c1)c1ccncc12 [Silmitasertib] + C[C@]1(O)C[C@@H](c2nc(-c3ccc4ccc(-c5ccccc5)nc4c3)c3c(N)nccn32)C1 [Linsitinib] (partner 1 µM)
Summary of the method: as §1

Silmitasertib + AZD7762 = compound: O=C(O)c1ccc2c(c1)nc(Nc1cccc(Cl)c1)c1ccncc12 [Silmitasertib] + NC(=O)Nc1cc(-c2cccc(F)c2)sc1C(=O)N[C@H]1CCCNC1 [AZD7762] (partner 0.2 µM)
Summary of the method: as §1

Silmitasertib + Olaparib = compound: O=C(O)c1ccc2c(c1)nc(Nc1cccc(Cl)c1)c1ccncc12 [Silmitasertib] + O=C(c1cc(Cc2n[nH]c(=O)c3ccccc23)ccc1F)N1CCN(C(=O)C2CC2)CC1 [Olaparib] (partner 8 µM)
Summary of the method: as §1

| Cell Line | relative viability ([1]; first compound 0.04 µM) | relative viability ([1]; first compound 0.4 µM) | relative viability ([1]; first compound 1.265 µM) | relative viability ([1]; first compound 4 µM) | relative viability ([2]; first compound 0.04 µM) | relative viability ([2]; first compound 0.4 µM) | relative viability ([2]; first compound 1.265 µM) | relative viability ([2]; first compound 4 µM) | relative viability ([3]; first compound 0.04 µM) | relative viability ([3]; first compound 0.4 µM) | relative viability ([3]; first compound 1.265 µM) | relative viability ([3]; first compound 4 µM) | relative viability (Silmitasertib + AZD7762; first compound 0.04 µM) | relative viability (Silmitasertib + AZD7762; first compound 0.4 µM) | relative viability (Silmitasertib + AZD7762; first compound 1.265 µM) | relative viability (Silmitasertib + AZD7762; first compound 4 µM) | relative viability (Silmitasertib + Olaparib; first compound 0.04 µM) | relative viability (Silmitasertib + Olaparib; first compound 0.4 µM) | relative viability (Silmitasertib + Olaparib; first compound 1.265 µM) | relative viability (Silmitasertib + Olaparib; first compound 4 µM) |
| --- | --- | --- | --- | --- | --- | --- | --- | --- | --- | --- | --- | --- | --- | --- | --- | --- | --- | --- | --- | --- |
| 201T | 0.353 | 0.346 | 0.37 | 0.387 | 1.03 | 1.03 | 1.12 | 1.28 | 1.03 | 1.02 | 0.889 | 1.01 | 0.636 | 0.372 | 0.754 | 0.682 | 0.82 | 0.756 | 0.945 | 0.953 |
| A-427 | 0.555 | 0.451 | 0.583 | 0.517 | 1.04 | – | 1.06 | 0.656 | 1.11 | – | 1.28 | 1.04 | 0.852 | 0.555 | 0.562 | 0.445 | 0.87 | 0.616 | 0.762 | 0.579 |
| ABC-1 | 1.09 | 0.86 | 0.555 | 0.674 | 0.889 | 0.696 | 0.332 | 0.312 | 0.788 | 1.13 | 0.523 | 0.294 | 0.948 | 0.824 | 0.8 | 0.567 | 0.814 | 0.863 | 0.777 | 0.738 |
| BEN | 0.511 | 0.394 | 0.432 | 0.519 | 0.484 | – | 0.623 | 0.284 | 1.03 | 0.892 | 1.01 | 0.882 | 0.935 | 0.674 | 0.625 | 0.568 | 1.31 | 0.506 | 0.964 | 1.15 |
| CAL-12T | 0.408 | 0.382 | 0.313 | 0.194 | 0.363 | 0.531 | 0.278 | 0.125 | 0.93 | 0.826 | 0.652 | 0.475 | 0.656 | 0.7 | 0.805 | 0.77 | 0.688 | 0.465 | 0.561 | 0.531 |
| COR-L23 | 0.316 | 0.251 | 0.261 | 0.207 | 0.716 | 0.66 | 0.646 | 0.678 | 1.02 | 0.843 | 0.821 | 0.638 | – | – | – | – | 0.393 | 0.31 | 0.325 | 0.283 |
| COR-L 105 | 0.43 | 0.426 | 0.396 | 0.399 | 0.709 | 0.767 | 0.541 | 0.447 | 0.977 | 0.82 | 0.92 | 0.574 | – | – | – | – | 0.716 | 0.614 | 0.689 | 0.5 |
| ChaGo-K-1 | 0.995 | 0.674 | 0.896 | 0.929 | 0.586 | 0.57 | 0.566 | 0.607 | – | – | – | – | 0.905 | 0.618 | 0.85 | 0.913 | 0.421 | 0.288 | 0.376 | 0.399 |
| EKVX | 0.439 | – | 0.336 | 0.423 | 0.986 | 0.605 | 0.718 | 0.884 | 1.15 | 0.869 | 0.711 | 0.677 | 0.834 | – | 0.682 | 0.642 | 0.889 | – | 0.7 | 0.784 |
